Values quoted from earlier work as cited in patent US20060258652A1, “Beta-blockers having antioxidant and no-donor activity” (priority 2002, published 2006).

Legend:
[1] = prophylactic use
[2] = double-blind study, hypertensive patients

Compound	patients in whom the incidence of migraine attacks is reduced [1] [%]	efficacy in anxiety compared with propranolol [2]
CC(C)NCC(O)COc1cccc2ccccc12 (centres unmarked) [Propranolol]	60	–
CC(C)NCC(O)COc1ccc(CC(N)=O)cc1 (centres unmarked) [atenolol]	–	considerably better than propranolol
